From PMC9813914, “Structural Basis for a Cork-Up Mechanism of the Intra-Molecular Mesaconyl-CoA Transferase” (Biochemistry, 2022)

Target: T1, Mct (mesaconyl-CoA transferase; mesaconyl-C1:C4-CoA CoA transferase) (Chloroflexus aurantiacus, UniProt A9WC36)
T1 construct: intertwined homodimer
T1 sequence (A9WC36 1-409): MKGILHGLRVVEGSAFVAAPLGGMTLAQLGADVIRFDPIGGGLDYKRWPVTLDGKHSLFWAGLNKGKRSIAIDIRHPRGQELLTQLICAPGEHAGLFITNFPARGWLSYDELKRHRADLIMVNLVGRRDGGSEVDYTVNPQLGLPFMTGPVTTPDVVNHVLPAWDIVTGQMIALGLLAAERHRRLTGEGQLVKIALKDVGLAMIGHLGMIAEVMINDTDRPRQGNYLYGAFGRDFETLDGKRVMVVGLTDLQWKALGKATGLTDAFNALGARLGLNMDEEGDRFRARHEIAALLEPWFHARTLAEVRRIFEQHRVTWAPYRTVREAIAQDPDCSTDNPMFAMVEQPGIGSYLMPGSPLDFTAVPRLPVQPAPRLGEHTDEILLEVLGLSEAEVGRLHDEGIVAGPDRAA
Test: HPLC-MS of succinyl-CoA formation
Format: biochemical
Conditions: alternative CoA acceptor (side activity); co-substrate 1 mM mesaconyl-C4-CoA; 200 mM HEPES/KOH pH 8.0, 55 °C, 6 μM Mct; read-out: apparent KM

Km: > 25 mM
Compound: O=C(O)CCC(=O)O [succinate]
